Our source for the IC50 values is US6302837A, “Benzothiophene, benzofuran and indole compounds” (Adir et Compagnie, priority 1999, dated 2001).

For this experiment, the target named is recombinant active human PAI-1 (Homo sapiens, UniProt P05121). The experiment is described as follows: Inhibition of the activity of PAI-1 in vitro (fibrin clot breakdown, turbidity). The format is biochemical. Conditions: absorbance two hours after start of fibrin formation, 50 mM phosphate buffer pH 7.4, tissue plasminogen activator, fibrinogen, thrombin, read-out: IC50 (concentration of product that inhibits PAI-1 activity by 50%). How it is done:
Inhibition of the activity of PAI-1 was effected in vitro in microplate wells in which the formation and then breakdown of a fibrin clot is monitored continuously by measurement of its turbidity using a spectrophotometer. To do so, using, as diluent, a 50 mM phosphate buffer pH 7.4 containing 0.05% of bovine serum albumin, […] of the inhibitor is placed in the presence of 50 μl of a 2 nM solution of recombinant active human PAI-1 for 5 minutes at ambient temperature. 50 μl of a 0.42 nM solution of tissue plasminogen activator, 50 μl of an 800 nM solution of human plasminogen and 50 μl of a 2 g/liter solution of fibrinogen are then added and the fibrin formation is triggered by the addition of 50 μl of 14 nM purified human thrombin. In the absence of the product, inhibition of breakdown two hours after the start of fibrin formation is measured by the absorbance of the clot and represents 100% of the PAI-1 activity. In the absence of the product and of PAI-1, breakdown is measured by the absorbance of the broken-down clot and represents 0% of the PAI-1 activity. The concentration of product that inhibits PAI-1 activity by 50% is determined by measuring the absorbance of the clot two hours after fibrin formation in the presence of PAI-1 and of an increasing concentration of the product.

recombinant active human PAI-1, sequence (P05121 24-402): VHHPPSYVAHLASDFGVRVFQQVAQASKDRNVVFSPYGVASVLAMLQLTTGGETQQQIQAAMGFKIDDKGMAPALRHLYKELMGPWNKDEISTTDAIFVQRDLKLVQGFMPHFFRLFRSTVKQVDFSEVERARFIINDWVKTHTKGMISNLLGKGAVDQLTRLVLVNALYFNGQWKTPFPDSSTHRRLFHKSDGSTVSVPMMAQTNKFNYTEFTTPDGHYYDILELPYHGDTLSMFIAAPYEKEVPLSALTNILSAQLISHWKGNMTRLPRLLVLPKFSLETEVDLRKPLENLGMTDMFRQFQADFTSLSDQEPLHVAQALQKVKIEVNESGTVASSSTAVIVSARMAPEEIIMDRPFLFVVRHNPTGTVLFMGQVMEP

Take `O=C(O)/C(=C/c1sc2cc(OCc3ccc(-c4ccccc4)cc3)c(OCc3ccc(-c4ccccc4)cc3)cc2c1Oc1ccccc1)c1ccncc1` [Example 26, (E)-3-[5,6-Bis([1,1'-biphenyl]-4-ylmethoxy)-3-phenoxy-benzo[b]thiophen-2-yl]-2-(4-pyridyl)-2-propenoic acid]: the IC50 was 60 nM. Regarding `O=C(O)/C(=C/c1sc2cc(OCc3ccc(-c4ccccc4)cc3)c(OCc3ccc(-c4ccccc4)cc3)cc2c1Oc1cccnc1)c1ccncc1` [Example 10], the IC50 stood at 530 nM. Under `O=C(O)/C(=C/c1sc2cc(OCc3ccc(-c4ccccc4)cc3)c(OCc3ccc(-c4ccccc4)cc3)cc2c1Oc1ccc(Cl)cc1)c1ccncc1` [Example 2, (E)-3-[5,6-Bis-([1,1'-biphenyl]-4-ylmethoxy)-3-(4-chlorophenoxy)-benzo[b]thiophen-2-yl]-2-(4-pyridyl)2-propenoic acid] stands 130 nM.
